Source: US20200170244A1, “METHODS FOR PRESERVING, TRANSPORTING AND STORING LIVING BIOLOGICAL MATERIALS” (priority 2013, published 2020)
Entries after “also recorded” stand apart in the source; their conditions may differ.

Test system: keratinocytes
Experiment: Effect of vanadium compounds on proliferation of keratinocytes (hair follicle culture, cell count)
Type: cell-based
Conditions: 14 days at 31° C.; for amount of proliferated keratinocytes (number of cells per ml of culture medium): 1 mg/ml in basic SFK growth serum, relative to control SFK without vanadium compound
Protocol: Method: The hair follicles were transferred to a 24-well culture disk containing dSFK with […] penicillin (Life Technologies B.V. Breda, The Netherlands) and 0.25 μg/ml streptomycin (Life Technologies B.V. Breda, The Netherlands), and placed for 14 days in a culture medium at 31° C. in a humidified atmosphere containing 5% CO2. Three different culture medium were used: • Treatment group oxovanadium (OVAN): The culture medium is a composition comprising a basic SFK growth serum (purchased from the supplier SFK, Enschede The Netherlands) supplemented with either 1 mg/ml of OVAN. • Treatment group bis (maltolato) oxovanadium (BMOV): The culture medium is a composition comprising a basic SFK growth serum (purchased from the supplier SFK, Enschede The Netherlands) supplemented with either 1 mg/ml of BMOV. • Control group: The control situation consists of a composition comprising the SFK basic growth serum but without the vanadium compounds (i.e. OVAN or BMOV).
The respective culture media were carefully removed every three days and replaced by fresh culture media. The cells remained attached to the hair follicles during this culture period. After 14 days the culture medium was removed and replaced by a 0.5 mg/ml trypsin, 0.2 mg/ml EDTA (ethylene diaminetetraacetic acid) solution (Life Technologies B.V. Breda, The Netherlands), and incubated for 5 minutes at 37° C. in this medium. After this incubation period clusters of cells were released from the hair follicles. These were harvested by centrifugation at 300 g at 4° C. for 5 minutes in a Eppendorf 5804R Centrifuge (VWR International, The Netherlands). Number of cells were counted and expressed as amount of proliferated cells per ml of culture medium.

Molecule	proliferated keratinocytes, BMOV compared with OVAN (1 mg/ml each in basic SFK growth serum)	amount of proliferated keratinocytes (number of cells per ml of culture medium)
Cc1occc(=O)c1[O-].Cc1occc(=O)c1[O-].[O]=[V+2] [BMOV, bis(maltolato)oxovanadium]	more potent than OVAN; also recorded: greater number of proliferated cells relative to treatment with OVAN	significantly increased; also recorded: enhanced proliferation
oxovanadium		significantly increased; also recorded: enhanced proliferation
